Measurements taken from patent US6492174B1, “Methods of initiating embryogenic cultures in plants” (Institute of Paper Science & Technology, priority 2000, dated 2002).

Key:
[1] = system: Loblolly pine megagametophytes; test: Vacuum infiltration of abscisic acid solutions (liquid media #1036) before culture on solid media #1042, eight weeks; assay type: cell-based
Excerpt: In this experiment the effects of megagametophyte pre-treatment by vacuum infiltration with abscisic acid solutions of varying concentration was investigated. The explants were megagametophytes from summer cones of four open pollinated individual trees, representing multiplicity of genotypes. The seeds contained Stage 2-4 zygotic embryos. Megagametophytes were excised from sterilized seeds, as described in Example 4.
Prior to culturing, the megagametophytes were vacuum infiltrated with liquid growth media #1036 (see Table 47) containing 0, 1, 5, or 25 ppm abscisic acid (See Table 19 for treatment media compositions). After vacuum infiltration, each megagametophyte was placed on 2 ml solid culture media #1042 (see Table 47 for composition) in a single well on a culture well plate.
One possible explanation for the results is that vacuum treatment may damage the megagametophytes.

[2] = system: Norway spruce zygotic embryos; test: Norway spruce initiation after ABA pre-treatment of seed or explant, ten weeks; assay type: cell-based
Procedure: In this Example, various ABA pre-treatment methods are compared.
Explants were zygotic embryos flipped out of the megagametophyte, prepared as in Example 1. The experiment consisted of four replications, with a replication consisting of ten explants in a single petri dish. Explants were cultured on solid media lacking ABA.
The treatments were designed to investigate the effects of pre-treating the whole seed compared to treating the explant (i.e. the embryo and megagametophyte) after their removal from the seed. It is presumed that soaking a whole seed will result in less ABA uptake by the megagametophyte and embryo than soaking them directly in ABA due to their being surrounded by seed tissue. Two treatments also compared the effect of the pH of the ABA solution. In Treatment #1, the control, seeds were soaked in water for 24 hours, and then explants were prepared as in Example 1. In Treatment #2, seeds were soaked in 5 ppm ABA for 24 hours prior to explant removal. In Treatment #3, seeds were soaked in 20 ppm ABA for 24 hours prior to explant removal. In Treatment #4, seeds were soaked in water for 24 hours and then the explants were removed and soaked in a 5 ppm ABA solution of pH 4.5 for 30 minutes. In Treatment #5 seeds were soaked in water for 24 hours and then the explants were removed and soaked in a 5 ppm ABA solution of pH 5.5 for 30 minutes. After ten weeks, the explants were examined and the frequency of embryogenic culture initiation was scored (Table 44).

[3] = genotype 5-1207, treatment 2, 1 ppm abscisic acid
[4] = genotype 5-1207, treatment 3, 5 ppm abscisic acid
[5] = genotype 5-1207, treatment 4, 25 ppm abscisic acid
[6] = genotype 7-1051, treatment 2, 1 ppm abscisic acid
[7] = genotype 7-1051, treatment 3, 5 ppm abscisic acid
[8] = genotype 7-1051, treatment 4, 25 ppm abscisic acid
[9] = genotype 11-1055, treatment 2, 1 ppm abscisic acid
[10] = genotype 11-1055, treatment 3, 5 ppm abscisic acid
[11] = genotype 11-1055, treatment 4, 25 ppm abscisic acid
[12] = genotype 11-1507, treatment 2, 1 ppm abscisic acid
[13] = genotype 11-1507, treatment 3, 5 ppm abscisic acid
[14] = genotype 11-1507, treatment 4, 25 ppm abscisic acid
[15] = total, treatment 2, 1 ppm abscisic acid
[16] = total, treatment 3, 5 ppm abscisic acid
[17] = total, treatment 4, 25 ppm abscisic acid

CC1=CC(=O)CC(C)(C)C1(O)/C=C/C(C)=C\C(=O)O (centres unmarked) [ABA, 5-(1-hydroxy-2,6,6,-trimethyl-4-oxo-2-cyclohexen-1-yl)-3-methyl-2,4-penta dienoic acid]
% of Megagametophytes Extruding [1, 3]: 23.3 (14.5) % | % of Megagametophytes Initiating [1, 3]: 20 (11.5) % | % of Megagametophytes Extruding [1, 4]: 10.0 (5.8) % | % of Megagametophytes Initiating [1, 4]: 10 (5.8) % | % of Megagametophytes Extruding [1, 5]: 13.3 (13.3) % | % of Megagametophytes Initiating [1, 5]: 10 (10.0) % | % of Megagametophytes Extruding [1, 6]: 33.3 (8.8) % | % of Megagametophytes Initiating [1, 6]: 6.7 (3.3) % | % of Megagametophytes Extruding [1, 7]: 30.0 (11.5) % | % of Megagametophytes Initiating [1, 7]: 10 (5.8) % | % of Megagametophytes Extruding [1, 8]: 56.7 (12.0) % | % of Megagametophytes Initiating [1, 8]: 13.3 (8.8) % | % of Megagametophytes Extruding [1, 9]: 53.3 (3.3) % | % of Megagametophytes Initiating [1, 9]: 16.7 (3.3) % | % of Megagametophytes Extruding [1, 10]: 66.7 (12.0) % | % of Megagametophytes Initiating [1, 10]: 30 (11.5) % | % of Megagametophytes Extruding [1, 11]: 36.7 (3.3) % | % of Megagametophytes Initiating [1, 11]: 13.3 (3.3) % | % of Megagametophytes Extruding [1, 12]: 16.7 (6.7) % | % of Megagametophytes Initiating [1, 12]: 6.7 (6.7) % | % of Megagametophytes Extruding [1, 13]: 6.7 (3.3) % | % of Megagametophytes Initiating [1, 13]: 6.7 (3.3) % | % of Megagametophytes Extruding [1, 14]: 6.7 (3.3) % | % of Megagametophytes Initiating [1, 14]: 0 (0.0) % | % of Megagametophytes Extruding [1, 15]: 31.7% | % of Megagametophytes Initiating [1, 15]: 12.5% | % of Megagametophytes Extruding [1, 16]: 28.4% | % of Megagametophytes Initiating [1, 16]: 14.2% | % of Megagametophytes Extruding [1, 17]: 28.4% | % of Megagametophytes Initiating [1, 17]: 9.2% | promotion of extrusion or initiation ([1]; vacuum infiltration, 1, 5 or 25 ppm): did not promote extrusion or initiation | % Initiating (std. error) ([2]; explant soaked in 5 ppm ABA (pH 4.5), 30 minutes): 31.2 (12.2) % | % Initiating (std. error) ([2]; explant soaked in 5 ppm ABA (pH 5.5), 30 minutes): 22.0 (3.0) % | % Initiating (std. error) ([2]; seed soaked in 5 ppm ABA, 24 hours): 15.1 (6.6) % | % Initiating (std. error) ([2]; seed soaked in 20 ppm ABA, 24 hours): 24.0 (5.4) %
